Reference: patent publication US10294202B2, “Pyrrolidinones as herbicides” (FMC Corporation, priority 2013, dated 2019)

What was measured:
ryegrass, Italian = assay: Test A pre-/postemergence herbicide test; type: in vivo, Lolium multiflorum
Method in brief: (§1)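 Seeds sown in loam soil/sand blend received a preemergence directed soil spray of test chemical in non-phytotoxic solvent with surfactant; postemergence plants (2–10 cm, one- to two-leaf stage) were sprayed with the same formulation. After about 10 days in greenhouse, injury was rated visually versus untreated controls, 0 (no effect) to 100 (complete control).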

barnyardgrass [1] = assay: Test B flooded paddy test; type: in vivo, Echinochloa crus-galli; settings: 500 g ai/ha, Flood; scale of 0 to 100 where 0 is no effect and 100 is complete control
Method in brief: (§2)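 Scoring: visual, compared with untreated controls, 0 = no effect through 100 = complete control, taken 13 to 15 days after treatment in the greenhouse. Compounds had been added to paddy water over soil flooded 3 cm deep at the plants' 2-leaf stage.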

blackgrass = assay: Test A postemergence herbicide test; type: in vivo, Alopecurus myosuroides
Method in brief: (§3)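 Potted in loam soil/sand blend; postemergence application at 1–2 leaf stage (2–10 cm). Greenhouse ~10 d. Visual injury vs untreated, 0–100 scale; 100 = complete control.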

galium = assay: Test A postemergence herbicide test; type: in vivo, Galium aparine
Method in brief: as §3

rice = assay: Test B flooded paddy test; type: in vivo, Oryza sativa; settings: 500 g ai/ha, Flood; scale of 0 to 100 where 0 is no effect and 100 is complete control
Method in brief: as §2

ducksalad = assay: Test B flooded paddy test; type: in vivo, Heteranthera limosa; settings: 500 g ai/ha, Flood; scale of 0 to 100 where 0 is no effect and 100 is complete control
Method in brief: as §2

giant foxtail = assay: Test A pre-/postemergence herbicide test; type: in vivo, Setaria faberii
Method in brief: as §1

barnyardgrass [2] = assay: Test A pre-/postemergence herbicide test; type: in vivo, Echinochloa crus-galli
Method in brief: as §1

kochia = assay: Test A pre-/postemergence herbicide test; type: in vivo, Kochia scoparia
Method in brief: as §1

corn = assay: Test A pre-/postemergence herbicide test; type: in vivo, Zea mays; settings: Postemergence
Method in brief: as §1

wheat = assay: Test A pre-/postemergence herbicide test; type: in vivo, Triticum aestivum; settings: Postemergence
Method in brief: as §1

pigweed = assay: Test A pre-/postemergence herbicide test; type: in vivo, Amaranthus retroflexus
Method in brief: as §1

ragweed = assay: Test A pre-/postemergence herbicide test; type: in vivo, Ambrosia elatior
Method in brief: as §1

sedge, umbrella = assay: Test B flooded paddy test; type: in vivo, Cyperus difformis; settings: 500 g ai/ha, Flood; scale of 0 to 100 where 0 is no effect and 100 is complete control
Method in brief: as §2

[3] = Postemergence, 125 g ai/ha, visual rating on 0 to 100 scale (0 no effect, 100 complete control), approx. 10 days
[4] = Postemergence, 500 g ai/ha, 0 to 100 scale (0 no effect, 100 complete control)
[5] = Preemergence, 125 g ai/ha, 0 to 100 scale where 0 is no effect and 100 is complete control
[6] = Preemergence, 500 g ai/ha, visual rating on 0 to 100 scale (0 no effect, 100 complete control)
[7] = 125 g ai/ha, visual rating on 0 to 100 scale (0 no effect, 100 complete control), approx. 10 days
[8] = 500 g ai/ha, 0 to 100 scale (0 no effect, 100 complete control)

## O=C1NCC(c2cccc(I)c2)C1C(=O)Nc1cccc(F)c1F (stereo not drawn) [Compound 327]
ryegrass, Italian; [3]
  Plant response rating, Ryegrass, Italian: 20
ryegrass, Italian; [4]
  Plant response rating, Ryegrass, Italian: 20
ryegrass, Italian; [5]
  Plant response rating, Ryegrass, Italian: 40
ryegrass, Italian; [6]
  Ryegrass, Italian plant response rating: 40
Barnyardgrass [1]
  Plant response rating, Barnyardgrass: 0
blackgrass; [7]
  Plant response rating, Blackgrass: 30
blackgrass; [8]
  Plant response rating, Blackgrass: 40
galium; [7]
  Plant response rating, Galium: 40
galium; [8]
  Plant response rating, Galium: 60
rice
  Plant response rating, Rice: 0
ducksalad
  Plant response rating, Ducksalad: 60
Giant foxtail; [3]
  Plant response rating, Foxtail, Giant: 40
Giant foxtail; [4]
  Plant response rating, Foxtail, Giant: 80
Giant foxtail; [5]
  Plant response rating, Foxtail, Giant: 80
Giant foxtail; [6]
  Foxtail, Giant plant response rating: 90
Barnyardgrass [2]; [3]
  Plant response rating, Barnyardgrass: 40
Barnyardgrass [2]; [4]
  Plant response rating, Barnyardgrass: 80
Barnyardgrass [2]; [5]
  Plant response rating, Barnyardgrass: 70
Barnyardgrass [2]; [6]
  Barnyardgrass plant response rating: 80
kochia; [3]
  Plant response rating, Kochia: 30
kochia; [4]
  Plant response rating, Kochia: 40
kochia; [5]
  Plant response rating, Kochia: 30
kochia; [6]
  Kochia plant response rating: 70
corn; [7]
  Plant response rating, Corn: 0
corn; [8]
  Plant response rating, Corn: 30
wheat; [7]
  Plant response rating, Wheat: 0
wheat; [8]
  Plant response rating, Wheat: 20
pigweed; [3]
  Plant response rating, Pigweed: 0
pigweed; [4]
  Plant response rating, Pigweed: 20
pigweed; [5]
  Plant response rating, Pigweed: 0
pigweed; [6]
  Pigweed plant response rating: 20
ragweed; [3]
  Plant response rating, Ragweed: 0
ragweed; [4]
  Plant response rating, Ragweed: 20
ragweed; [5]
  Plant response rating, Ragweed: 20
ragweed; [6]
  Ragweed plant response rating: 30
sedge, umbrella
  Plant response rating, Sedge, Umbrella: 0

## O=C1NCC(c2cccc(Oc3ccccc3)c2)C1C(=O)Nc1ccc(F)cc1F (stereo not drawn) [Compound 331]
ryegrass, Italian; [3]
  Plant response rating, Ryegrass, Italian: 0
ryegrass, Italian; [4]
  Plant response rating, Ryegrass, Italian: 0
ryegrass, Italian; [5]
  Plant response rating, Ryegrass, Italian: 0
ryegrass, Italian; [6]
  Ryegrass, Italian plant response rating: 20
Barnyardgrass [1]
  Plant response rating, Barnyardgrass: 40
blackgrass; [7]
  Plant response rating, Blackgrass: 0
blackgrass; [8]
  Plant response rating, Blackgrass: 30
galium; [7]
  Plant response rating, Galium: 0
galium; [8]
  Plant response rating, Galium: 30
rice
  Plant response rating, Rice: 0
ducksalad
  Plant response rating, Ducksalad: 65
Giant foxtail; [3]
  Plant response rating, Foxtail, Giant: 20
Giant foxtail; [4]
  Plant response rating, Foxtail, Giant: 80
Giant foxtail; [5]
  Plant response rating, Foxtail, Giant: 50
Giant foxtail; [6]
  Foxtail, Giant plant response rating: 90
Barnyardgrass [2]; [3]
  Plant response rating, Barnyardgrass: 20
Barnyardgrass [2]; [4]
  Plant response rating, Barnyardgrass: 70
Barnyardgrass [2]; [5]
  Plant response rating, Barnyardgrass: 20
Barnyardgrass [2]; [6]
  Barnyardgrass plant response rating: 80
kochia; [3]
  Plant response rating, Kochia: 0
kochia; [4]
  Plant response rating, Kochia: 20
kochia; [5]
  Plant response rating, Kochia: 0
kochia; [6]
  Kochia plant response rating: 0
corn; [7]
  Plant response rating, Corn: 0
corn; [8]
  Plant response rating, Corn: 0
wheat; [7]
  Plant response rating, Wheat: 0
wheat; [8]
  Plant response rating, Wheat: 0
pigweed; [3]
  Plant response rating, Pigweed: 0
pigweed; [4]
  Plant response rating, Pigweed: 0
pigweed; [5]
  Plant response rating, Pigweed: 0
pigweed; [6]
  Pigweed plant response rating: 20
ragweed; [3]
  Plant response rating, Ragweed: 0
ragweed; [4]
  Plant response rating, Ragweed: 0
ragweed; [5]
  Plant response rating, Ragweed: 0
ragweed; [6]
  Ragweed plant response rating: 20
sedge, umbrella
  Plant response rating, Sedge, Umbrella: 0

## CCN1CC(c2ccc(C(F)(F)F)cc2)C(C(=O)Nc2ccccc2F)C1=O (stereo not drawn) [Compound 335]
ryegrass, Italian; [3]
  Plant response rating, Ryegrass, Italian: 0
ryegrass, Italian; [4]
  Plant response rating, Ryegrass, Italian: 0
ryegrass, Italian; [5]
  Plant response rating, Ryegrass, Italian: 0
ryegrass, Italian; [6]
  Ryegrass, Italian plant response rating: 0
Barnyardgrass [1]
  Plant response rating, Barnyardgrass: 0
blackgrass; [7]
  Plant response rating, Blackgrass: 0
blackgrass; [8]
  Plant response rating, Blackgrass: 20
galium; [7]
  Plant response rating, Galium: 0
galium; [8]
  Plant response rating, Galium: 0
rice
  Plant response rating, Rice: 0
ducksalad
  Plant response rating, Ducksalad: 65
Giant foxtail; [3]
  Plant response rating, Foxtail, Giant: 70
Giant foxtail; [4]
  Plant response rating, Foxtail, Giant: 90
Giant foxtail; [5]
  Plant response rating, Foxtail, Giant: 70
Giant foxtail; [6]
  Foxtail, Giant plant response rating: 90
Barnyardgrass [2]; [3]
  Plant response rating, Barnyardgrass: 20
Barnyardgrass [2]; [4]
  Plant response rating, Barnyardgrass: 60
Barnyardgrass [2]; [5]
  Plant response rating, Barnyardgrass: 0
Barnyardgrass [2]; [6]
  Barnyardgrass plant response rating: 50
kochia; [3]
  Plant response rating, Kochia: 0
kochia; [4]
  Plant response rating, Kochia: 0
kochia; [5]
  Plant response rating, Kochia: 40
kochia; [6]
  Kochia plant response rating: 60
corn; [7]
  Plant response rating, Corn: 0
corn; [8]
  Plant response rating, Corn: 0
wheat; [7]
  Plant response rating, Wheat: 0
wheat; [8]
  Plant response rating, Wheat: 20
pigweed; [3]
  Plant response rating, Pigweed: 0
pigweed; [4]
  Plant response rating, Pigweed: 0
pigweed; [5]
  Plant response rating, Pigweed: 0
pigweed; [6]
  Pigweed plant response rating: 30
ragweed; [3]
  Plant response rating, Ragweed: 0
ragweed; [4]
  Plant response rating, Ragweed: 0
ragweed; [5]
  Plant response rating, Ragweed: 0
ragweed; [6]
  Ragweed plant response rating: 0
sedge, umbrella
  Plant response rating, Sedge, Umbrella: 0
